Values after ≈ are worked out from the molar mass of the structure shown.
Tests used:
Format in all cases: functional
[1] = test system: Staphylococcus aureus; assay: Antibacterial activity against Staphylococcus aureus MTCC 96 incubated for 24 hrs at 37 degC by well diffusion method; conditions: MTCC 96, 24 h
[2] = test system: Bacillus subtilis; assay: Antibacterial activity against Bacillus subtilis MTCC 121 incubated for 24 hrs at 37 degC by well diffusion method; conditions: MTCC 121, 24 h
[3] = test system: Staphylococcus aureus; assay: Antibacterial activity against Staphylococcus aureus MLS16 MTCC 2940 incubated for 24 hrs at 37 degC by well diffusion method; conditions: MLS16 MTCC 2940, 24 h
[4] = test system: Micrococcus luteus; assay: Antibacterial activity against Micrococcus luteus MTCC 2470 incubated for 24 hrs at 37 degC by well diffusion method; conditions: MTCC 2470, 24 h
[5] = test system: Raoultella planticola; assay: Antibacterial activity against Klebsiella planticola MTCC 530 incubated for 24 hrs at 37 degC by well diffusion method; conditions: MTCC 530, 24 h
[6] = test system: Escherichia coli; assay: Antibacterial activity against Escherichia coli MTCC 739 incubated for 24 hrs at 37 degC by well diffusion method; conditions: MTCC 739, 24 h
[7] = test system: Pseudomonas aeruginosa; assay: Antibacterial activity against Pseudomonas aeruginosa MTCC 2453 incubated for 24 hrs at 37 degC by well diffusion method; conditions: MTCC 2453, 24 h
[8] = test system: Candida albicans; assay: Antifungal activity against Candida albicans MTCC 183 incubated for 24 hrs at 30 degC by well diffusion method; conditions: MTCC 183, 24 h
[9] = test system: Candida albicans; assay: Antifungal activity against Candida albicans MTCC 227 incubated for 24 hrs at 30 degC by well diffusion method; conditions: MTCC 227, 24 h
[10] = test system: Candida albicans; assay: Antifungal activity against Candida albicans MTCC 854 incubated for 24 hrs at 30 degC by well diffusion method; conditions: MTCC 854, 24 h
[11] = test system: Candida albicans; assay: Antifungal activity against Candida albicans MTCC 1637 incubated for 24 hrs at 30 degC by well diffusion method; conditions: MTCC 1637, 24 h
[12] = test system: Candida albicans; assay: Antifungal activity against Candida albicans MTCC 3017 incubated for 24 hrs at 30 degC by well diffusion method; conditions: MTCC 3017, 24 h
[13] = test system: Candida albicans; assay: Antifungal activity against Candida albicans MTCC 3018 incubated for 24 hrs at 30 degC by well diffusion method; conditions: MTCC 3018, 24 h
[14] = test system: Candida albicans; assay: Antifungal activity against Candida albicans MTCC 3958 incubated for 24 hrs at 30 degC by well diffusion method; conditions: MTCC 3958, 24 h
[15] = test system: Candida albicans; assay: Antifungal activity against Candida albicans MTCC 4748 incubated for 24 hrs at 30 degC by well diffusion method; conditions: MTCC 4748, 24 h
[16] = test system: Candida albicans; assay: Antifungal activity against Candida albicans MTCC 7315 incubated for 24 hrs at 30 degC by well diffusion method; conditions: MTCC 7315, 24 h
[17] = test system: Candida parapsilosis; assay: Antifungal activity against Candida parapsilosis MTCC 1744 incubated for 24 hrs at 30 degC by well diffusion method; conditions: Lodderomyces parapsilosis, MTCC 1744, 24 h
[18] = test system: [Candida] aaseri; assay: Antifungal activity against Candida aaseri MTCC 1962 incubated for 24 hrs at 30 degC by well diffusion method; conditions: Yamadazyma aaseri, MTCC 1962, 24 h
[19] = test system: Nakaseomyces glabratus; assay: Antifungal activity against Candida glabrata MTCC 3019 incubated for 24 hrs at 30 degC by well diffusion method; conditions: MTCC 3019, 24 h
[20] = test system: Pichia kudriavzevii; assay: Antifungal activity against Candida krusei MTCC 3020 incubated for 24 hrs at 30 degC by well diffusion method; conditions: MTCC 3020, 24 h
[21] = test system: Pichia sporocuriosa; assay: Antifungal activity against Issatchenkia hanoiensis MTCC 4755 incubated for 24 hrs at 30 degC by well diffusion method; conditions: MTCC 4755, 24 h
[22] = test system: Staphylococcus aureus; assay: Bactericidal activity against Staphylococcus aureus MTCC 96 incubated for 24 hrs; conditions: MTCC 96, 24 h
[23] = test system: Bacillus subtilis; assay: Bactericidal activity against Bacillus subtilis MTCC 121 incubated for 24 hrs; conditions: MTCC 121, 24 h
[24] = test system: Staphylococcus aureus; assay: Bactericidal activity against Staphylococcus aureus MLS16 MTCC 2940 incubated for 24 hrs; conditions: MLS16 MTCC 2940, 24 h
[25] = test system: Micrococcus luteus; assay: Bactericidal activity against Micrococcus luteus MTCC 2470 incubated for 24 hrs; conditions: MTCC 2470, 24 h
[26] = test system: Raoultella planticola; assay: Bactericidal activity against Klebsiella planticola MTCC 530 incubated for 24 hrs; conditions: MTCC 530, 24 h
[27] = test system: Escherichia coli; assay: Bactericidal activity against Escherichia coli MTCC 739 incubated for 24 hrs; conditions: MTCC 739, 24 h
[28] = test system: Candida albicans; assay: Fungicidal activity against Candida albicans MTCC 183 incubated for 24 hrs; conditions: MTCC 183, 24 h
[29] = test system: Candida albicans; assay: Fungicidal activity against Candida albicans MTCC 227 incubated for 24 hrs; conditions: MTCC 227, 24 h
[30] = test system: Candida albicans; assay: Fungicidal activity against Candida albicans MTCC 854 incubated for 24 hrs; conditions: MTCC 854, 24 h
[31] = test system: Candida albicans; assay: Fungicidal activity against Candida albicans MTCC 1637 incubated for 24 hrs; conditions: MTCC 1637, 24 h
[32] = test system: Candida albicans; assay: Fungicidal activity against Candida albicans MTCC 3017 incubated for 24 hrs; conditions: MTCC 3017, 24 h
[33] = test system: Candida albicans; assay: Fungicidal activity against Candida albicans MTCC 3018 incubated for 24 hrs; conditions: MTCC 3018, 24 h
[34] = test system: Candida albicans; assay: Fungicidal activity against Candida albicans MTCC 3958 incubated for 24 hrs; conditions: MTCC 3958, 24 h
[35] = test system: Candida albicans; assay: Fungicidal activity against Candida albicans MTCC 4748 incubated for 24 hrs; conditions: MTCC 4748, 24 h
[36] = test system: Candida albicans; assay: Fungicidal activity against Candida albicans MTCC 7315 incubated for 24 hrs; conditions: MTCC 7315, 24 h
[37] = test system: Candida parapsilosis; assay: Fungicidal activity against Candida parapsilosis MTCC 1744 incubated for 24 hrs; conditions: Lodderomyces parapsilosis, MTCC 1744, 24 h
[38] = test system: [Candida] aaseri; assay: Fungicidal activity against Candida aaseri MTCC 1962 incubated for 24 hrs; conditions: Yamadazyma aaseri, MTCC 1962, 24 h
[39] = test system: Nakaseomyces glabratus; assay: Fungicidal activity against Candida glabrata MTCC 3019 incubated for 24 hrs; conditions: MTCC 3019, 24 h
[40] = test system: Pichia kudriavzevii; assay: Fungicidal activity against Candida krusei MTCC 3020 incubated for 24 hrs; conditions: MTCC 3020, 24 h
[41] = test system: Pichia sporocuriosa; assay: Fungicidal activity against Issatchenkia hanoiensis MTCC 4755 incubated for 24 hrs; conditions: MTCC 4755, 24 h

- MIC [1]: 7.8 µg/mL (≈ 22.6 µM)
- MIC [2]: 15.6 µg/mL (≈ 45.2 µM)
- MIC [3]: 15.6 µg/mL (≈ 45.2 µM)
- MIC [4]: 3.9 µg/mL (≈ 11.3 µM)
- MIC [6]: > 250 µg/mL
- MIC [7]: > 250 µg/mL
- MIC [8]: 62.5 µg/mL (≈ 181 µM)
- MIC [9]: 31.2 µg/mL (≈ 90.3 µM)
- MIC [10]: 62.5 µg/mL (≈ 181 µM)
- MIC [11]: 125 µg/mL (≈ 362 µM)
- MIC [12]: 62.5 µg/mL (≈ 181 µM)
- MIC [13]: 125 µg/mL (≈ 362 µM)
- MIC [14]: 62.5 µg/mL (≈ 181 µM)
- MIC [15]: 125 µg/mL (≈ 362 µM)
- MIC [16]: 62.5 µg/mL (≈ 181 µM)
- MIC [17]: 31.2 µg/mL (≈ 90.3 µM)
- MIC [18]: 31.2 µg/mL (≈ 90.3 µM)
- MIC [19]: 62.5 µg/mL (≈ 181 µM)
- MIC [20]: 62.5 µg/mL (≈ 181 µM)
- MIC [21]: 62.5 µg/mL (≈ 181 µM)
SMILES: CCCCCCCCC[C@@H](O)[C@H](CO)n1cc(-c2ccccc2)nn1
- MIC [5]: 31.2 µg/mL (≈ 90.3 µM)
- MBC [22]: 15.6 µg/mL (≈ 45.2 µM)
- MBC [23]: 15.6 µg/mL (≈ 45.2 µM)
- MBC [24]: 31.2 µg/mL (≈ 90.3 µM)
- MBC [25]: 7.8 µg/mL (≈ 22.6 µM)
- MBC [26]: 62.5 µg/mL (≈ 181 µM)
- MBC [27]: > 250 µg/mL
- MFC [28]: 62.5 µg/mL (≈ 181 µM)
- MFC [29]: 62.5 µg/mL (≈ 181 µM)
- MFC [30]: 62.5 µg/mL (≈ 181 µM)
- MFC [31]: 125 µg/mL (≈ 362 µM)
- MFC [32]: 125 µg/mL (≈ 362 µM)
- MFC [33]: 125 µg/mL (≈ 362 µM)
- MFC [34]: 125 µg/mL (≈ 362 µM)
- MFC [35]: 125 µg/mL (≈ 362 µM)
- MFC [36]: 62.5 µg/mL (≈ 181 µM)
- MFC [37]: 62.5 µg/mL (≈ 181 µM)
- MFC [38]: 31.2 µg/mL (≈ 90.3 µM)
- MFC [39]: 62.5 µg/mL (≈ 181 µM)
- MFC [40]: 62.5 µg/mL (≈ 181 µM)
- MFC [41]: 125 µg/mL (≈ 362 µM)

From ChEMBL document CHEMBL3822398, “Design, synthesis and in vitro biological evaluation of short-chain C12-sphinganine and its 1,2,3-triazole analogs as potential antimicrobial and anti-biofilm agents” (Eur J Med Chem, 2016)
